In general, IC50 refers to the concentration at which inhibition is half-maximal. A low value points to greater potency in that assay. By inhibition is commonly meant the share of the control response that was lost under treatment.

Results on nine molecules are retold here after patent publication EP4592286A1, “MACROCYCLIC NITROGEN-CONTAINING CROWN ETHER COMPOUND AND USE THEREOF AS PROTEIN KINASE INHIBITOR” (Artivila Biopharma, priority 2022, dated 2024).

Holding throughout (type): biochemical
Assay [1] has as its target T1, LRRK2 (Homo sapiens, UniProt Q5S007). Kind of assay: experiment of inhibiting LRRK2 kinase activity (ADP-Glo method). Particulars: Table 4. The method, then:
The inhibitory effect of the compounds on the activity of LRRK2 kinase was detected by ADP-Glo method. The diluted solutions of the compounds were transfered to a 384-well plate (784075, Greiner), the plate was sealed and centrifuged at a speed of 1000 g for 1 minute. A kinase solution at 2-fold final concentration was prepared with 1×kinase buffer, 2.5 µl of the kinase solution with 2-fold final concentration was added to the wells, the plate was centrifuged at 1000 g for 30 seconds, and left at room temperature for 10 minutes. A mixed solution of ATP and kinase substrate at 2-fold final concentration was prepared with 1×kinase buffer, and 2.5 µL of mixed solution of ATP and substrate at 2-fold final concentration was added to start the reaction. The plate was centrifuged at 1000 g for 30 seconds, sealed and left at room temperature for 2 hours. 4 µL of ADP-Glo reagent was added and incubated at room temperature for 40 minutes; 8 µL kinase detection reagent was added and incubated at room temperature for another 40 minutes. The luminescence signal value was detected on Envision 2104 microplate reader. The conversion inhibition rate%=100-(compound signal value-positive control signal value)/(blank control signal value-positive control signal value)×100.
The IC50 was calculated with GraphPad 6.0 and the dose-responsive curve of the compounds was plotted as follows: y=Bottom+(Top-Bottom)/(1+10^((logic50-x)×hillslope)), where x was logarithm of inhibitor concentration; and y was % inhibition rate.
A general note: ADP-Glo first removes unused ATP, then detects ADP through luciferase.

The target in another assay is CDK9 (Homo sapiens, UniProt P50750). Kind of assay: experiment of inhibiting kinase activity (Caliper mobility shift assay), CDK9. The conditions noted are these: at 100 nM; read-out: inhibition rate CDK9. The method, then: (§1) The inhibition rates of tested compounds on JAK1, JAK2, JAK3, TYK2, CDK7, CDK9, EGFR (T790M) and LRRK2 kinases were measured. The test concentrations of the compounds were 10 nM and 100 nM, and the detection was performed by replicate wells. Alternatively, compounds were 3-fold serial diluted from 10 µM for 10 concentrations in replicate wells.
The inhibitory effects of the compounds on JAK1, JAK2, JAK3, CDK7 and CDK9 kinases were detected by the method of Caliper mobility shift assay. 250 nL of the compound at 100-fold final concentration was transferred to a destination plate 384-well-plate by using a liquid handler Echo 550. A kinase solution at 2.5-fold final concentration was prepared with 1×kinase buffer. 10 µL of the kinase solution with 2.5-fold final concentration was added to compound wells and positive control wells; and 10 µL of 1×kinase buffer was added to negative control wells. The mixture was centrifuged at 1000 rpm for 30 seconds and then incubated at room temperature for 10 minutes. A mixed solution of ATP and kinase substrate at 5/3-fold final concentration was prepared with 1×kinase buffer, and 15 µL of the mixed solution of ATP and substrate at 5/3-fold final concentration was added to start the reaction. The 384-well plate was centrifuged at 1000 rpm for 30 seconds, shaked and mixed evenly, then incubated at room temperature for a corresponding time. 30 µL of stop solution was added to stop the kinase reaction, the mixture was centrifuged at 1000 rpm for 30 seconds, and shaked and mixed evenly. The conversion rate was read by Caliper EZ Reader. The conversion inhibition rate%=(average positive control conversion rate%-sample conversion rate%)/(average positive control conversion rate%-average negative control conversion rate%). Where negative control wells represent the conversion readings of the background well of kinase buffer; and positive control wells represent the conversion readings of wells without compound inhibition. With the log value of concentration as the x axis and the percentage inhibition rate as the y axis, the dose-response curve was fitted by the log (inhibitor) vs. response-variable slope of the analyzing softwar GraphPad Prism 5, and the IC50 values of each compound on enzyme activity were obtained. Calculation formula is as follows: y=Bottom+(Top-Bottom)/(1+10^((LogIC50-x)×hillslope)), where x is logarithm of inhibitor concentration; and Y is % inhibition rate.

The target in a further assay is TYK2 (Homo sapiens, UniProt P29597). The experiment in a line: experiment of inhibiting kinase activity, TYK2. Particulars: read-out: inhibition rate TYK2; for inhibition at 0.1 µM: at 100 nM. The method, then: as §1
In another assay the target is CDK7 (Homo sapiens, UniProt P50613). The experiment in a line: experiment of inhibiting kinase activity (Caliper mobility shift assay), CDK7. Particulars: read-out: inhibition rate CDK7; for inhibition at 0.01 µM: at 10 nM; for inhibition at 0.1 µM: at 100 nM. In outline: (§2)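 Mobility-shift readout of substrate conversion; % inhibition normalized to uninhibited-enzyme wells (0%) and buffer-only background wells. Dosing: single points at 10 and 100 nM, or 3-fold series from 10 µM (10 conc.), replicates. Kinase + compound 10 min RT, then ATP/substrate.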

The next assay addresses JAK1 (Homo sapiens, UniProt P23458). The experiment in a line: experiment of inhibiting kinase activity (Caliper mobility shift assay), JAK1. The conditions noted are these: read-out: inhibition rate JAK1; for inhibition at 0.1 µM: at 100 nM. The method in brief: as §2
In another assay the target is T2, JAK3 (Homo sapiens, UniProt P52333).
T2 sequence (P52333 1-1124): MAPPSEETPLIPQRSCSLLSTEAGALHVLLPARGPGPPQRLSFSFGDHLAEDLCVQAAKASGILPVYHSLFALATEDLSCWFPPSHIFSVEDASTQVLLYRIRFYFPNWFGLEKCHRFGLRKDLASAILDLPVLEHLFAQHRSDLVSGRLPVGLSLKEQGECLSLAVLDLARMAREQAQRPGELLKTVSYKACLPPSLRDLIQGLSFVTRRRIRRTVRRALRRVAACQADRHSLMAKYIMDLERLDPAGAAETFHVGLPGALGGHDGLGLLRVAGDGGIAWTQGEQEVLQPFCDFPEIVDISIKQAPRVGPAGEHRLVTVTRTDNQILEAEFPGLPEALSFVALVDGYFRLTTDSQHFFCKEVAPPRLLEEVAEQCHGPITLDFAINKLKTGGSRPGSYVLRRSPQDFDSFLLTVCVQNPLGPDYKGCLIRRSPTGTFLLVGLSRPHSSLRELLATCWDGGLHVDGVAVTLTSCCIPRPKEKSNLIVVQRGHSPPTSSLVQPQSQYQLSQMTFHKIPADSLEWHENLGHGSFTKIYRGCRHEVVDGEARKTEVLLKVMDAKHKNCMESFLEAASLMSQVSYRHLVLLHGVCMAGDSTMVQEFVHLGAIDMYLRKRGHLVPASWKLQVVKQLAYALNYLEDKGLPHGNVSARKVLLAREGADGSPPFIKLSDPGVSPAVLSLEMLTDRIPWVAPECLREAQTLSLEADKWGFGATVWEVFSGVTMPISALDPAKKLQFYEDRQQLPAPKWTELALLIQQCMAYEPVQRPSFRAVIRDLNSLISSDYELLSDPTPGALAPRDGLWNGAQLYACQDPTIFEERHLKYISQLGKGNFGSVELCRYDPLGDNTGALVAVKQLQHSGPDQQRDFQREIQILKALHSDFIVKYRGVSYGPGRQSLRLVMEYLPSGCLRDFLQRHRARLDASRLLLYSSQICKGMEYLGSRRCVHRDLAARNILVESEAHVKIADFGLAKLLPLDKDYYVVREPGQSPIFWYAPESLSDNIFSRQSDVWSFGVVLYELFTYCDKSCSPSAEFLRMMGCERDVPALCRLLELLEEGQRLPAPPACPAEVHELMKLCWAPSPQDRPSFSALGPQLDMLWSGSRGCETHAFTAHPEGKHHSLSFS
Kind of assay: experiment of inhibiting kinase activity (Caliper mobility shift assay), JAK3. Particulars: read-out: inhibition rate JAK3; for inhibition at 0.01 µM: at 10 nM; for inhibition at 0.1 µM: at 100 nM. The method in brief:
as §2

Assay [2] concerns the target T1, LRRK2. Kind of assay: experiment of inhibiting kinase activity, LRRK2. The conditions noted are these: for inhibition at 0.1 µM: at 100 nM. The method, then:
as §1

The next assay concerns the target JAK2 (Homo sapiens, UniProt O60674). Kind of assay: experiment of inhibiting kinase activity (Caliper mobility shift assay), JAK2. Particulars: read-out: inhibition rate JAK2; for inhibition at 0.01 µM: at 10 nM; for inhibition at 0.1 µM: at 100 nM. In outline:
as §2

Where [3] appears, read: read-out: inhibition rate LRRK2.

JAK2, sequence (O60674 whole entry): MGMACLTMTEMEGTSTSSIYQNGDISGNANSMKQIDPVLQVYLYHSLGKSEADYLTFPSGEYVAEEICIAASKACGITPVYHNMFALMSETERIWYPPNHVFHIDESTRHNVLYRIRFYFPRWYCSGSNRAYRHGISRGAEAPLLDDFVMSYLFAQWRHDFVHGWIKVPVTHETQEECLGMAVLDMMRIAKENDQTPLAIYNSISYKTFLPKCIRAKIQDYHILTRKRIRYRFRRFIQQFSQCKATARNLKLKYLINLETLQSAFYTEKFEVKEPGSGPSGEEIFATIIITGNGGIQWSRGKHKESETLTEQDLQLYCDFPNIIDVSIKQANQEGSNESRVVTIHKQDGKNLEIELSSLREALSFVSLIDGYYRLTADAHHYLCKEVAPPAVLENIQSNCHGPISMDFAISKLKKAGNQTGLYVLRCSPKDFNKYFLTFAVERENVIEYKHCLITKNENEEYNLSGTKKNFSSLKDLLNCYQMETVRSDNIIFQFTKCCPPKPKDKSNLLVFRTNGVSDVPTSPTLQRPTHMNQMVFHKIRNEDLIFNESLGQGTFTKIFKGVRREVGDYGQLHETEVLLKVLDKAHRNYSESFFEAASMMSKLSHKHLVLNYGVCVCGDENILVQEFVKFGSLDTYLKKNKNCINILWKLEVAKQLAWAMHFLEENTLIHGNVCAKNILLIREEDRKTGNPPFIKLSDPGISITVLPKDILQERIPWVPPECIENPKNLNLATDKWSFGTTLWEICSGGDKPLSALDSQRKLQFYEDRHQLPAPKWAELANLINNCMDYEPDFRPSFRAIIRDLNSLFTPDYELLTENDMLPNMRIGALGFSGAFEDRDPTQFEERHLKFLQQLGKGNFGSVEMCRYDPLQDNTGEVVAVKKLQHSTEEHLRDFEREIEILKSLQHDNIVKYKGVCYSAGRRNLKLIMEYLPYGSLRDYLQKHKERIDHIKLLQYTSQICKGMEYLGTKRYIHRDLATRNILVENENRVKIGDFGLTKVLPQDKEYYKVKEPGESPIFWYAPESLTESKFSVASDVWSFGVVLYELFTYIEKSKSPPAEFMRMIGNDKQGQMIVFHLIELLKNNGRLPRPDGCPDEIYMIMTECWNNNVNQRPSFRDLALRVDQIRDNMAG
JAK1, sequence (P23458 whole entry): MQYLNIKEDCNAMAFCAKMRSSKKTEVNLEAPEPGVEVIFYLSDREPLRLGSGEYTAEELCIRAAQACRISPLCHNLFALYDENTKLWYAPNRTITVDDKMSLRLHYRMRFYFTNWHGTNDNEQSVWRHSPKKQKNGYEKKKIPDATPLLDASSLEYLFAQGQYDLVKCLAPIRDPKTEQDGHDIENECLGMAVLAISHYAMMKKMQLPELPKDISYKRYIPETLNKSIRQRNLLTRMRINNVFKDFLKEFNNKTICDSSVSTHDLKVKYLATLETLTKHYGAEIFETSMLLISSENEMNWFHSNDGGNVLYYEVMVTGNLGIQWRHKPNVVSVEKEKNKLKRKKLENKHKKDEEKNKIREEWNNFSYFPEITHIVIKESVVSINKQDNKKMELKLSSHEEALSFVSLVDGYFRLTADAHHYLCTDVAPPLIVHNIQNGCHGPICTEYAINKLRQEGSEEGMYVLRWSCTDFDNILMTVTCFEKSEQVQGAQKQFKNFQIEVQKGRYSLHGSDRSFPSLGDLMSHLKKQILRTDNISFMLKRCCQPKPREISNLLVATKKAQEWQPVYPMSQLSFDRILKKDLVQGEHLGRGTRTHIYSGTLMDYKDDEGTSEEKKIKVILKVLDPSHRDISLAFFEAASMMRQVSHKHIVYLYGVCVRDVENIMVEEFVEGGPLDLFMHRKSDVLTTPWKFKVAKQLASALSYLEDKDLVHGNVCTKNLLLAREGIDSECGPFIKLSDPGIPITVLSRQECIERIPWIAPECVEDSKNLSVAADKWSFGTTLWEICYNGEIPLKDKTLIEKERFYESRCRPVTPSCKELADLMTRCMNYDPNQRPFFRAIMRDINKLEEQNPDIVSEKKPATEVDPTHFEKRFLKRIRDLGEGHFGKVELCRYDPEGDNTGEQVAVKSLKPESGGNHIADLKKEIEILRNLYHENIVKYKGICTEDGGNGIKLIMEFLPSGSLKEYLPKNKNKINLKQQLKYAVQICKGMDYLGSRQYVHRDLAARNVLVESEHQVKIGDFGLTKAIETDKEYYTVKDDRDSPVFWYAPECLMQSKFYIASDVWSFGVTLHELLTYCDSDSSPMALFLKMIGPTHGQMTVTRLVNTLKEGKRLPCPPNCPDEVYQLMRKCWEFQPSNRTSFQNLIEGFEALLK
CDK7, sequence (P50613 whole entry, species assumed): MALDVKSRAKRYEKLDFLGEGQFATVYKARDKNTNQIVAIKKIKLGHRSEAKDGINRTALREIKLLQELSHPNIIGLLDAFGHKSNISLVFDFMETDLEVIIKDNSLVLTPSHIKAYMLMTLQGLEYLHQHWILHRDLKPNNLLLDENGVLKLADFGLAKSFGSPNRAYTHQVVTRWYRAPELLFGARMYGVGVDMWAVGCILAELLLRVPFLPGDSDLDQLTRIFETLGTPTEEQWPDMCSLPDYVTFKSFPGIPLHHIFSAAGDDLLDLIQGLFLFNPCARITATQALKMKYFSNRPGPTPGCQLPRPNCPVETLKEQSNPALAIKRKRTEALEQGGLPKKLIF
CDK7, sequence (P51946 whole entry partner, species assumed): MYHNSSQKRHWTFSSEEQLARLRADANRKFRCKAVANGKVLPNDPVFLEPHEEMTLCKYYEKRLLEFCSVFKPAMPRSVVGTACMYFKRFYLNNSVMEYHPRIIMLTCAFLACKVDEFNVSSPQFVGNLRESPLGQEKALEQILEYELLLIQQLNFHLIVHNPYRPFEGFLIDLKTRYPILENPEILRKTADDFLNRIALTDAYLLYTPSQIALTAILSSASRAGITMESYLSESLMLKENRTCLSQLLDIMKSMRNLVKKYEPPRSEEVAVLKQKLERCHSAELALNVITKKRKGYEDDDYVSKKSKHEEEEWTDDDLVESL
CDK7, sequence (P51948 whole entry partner, species assumed): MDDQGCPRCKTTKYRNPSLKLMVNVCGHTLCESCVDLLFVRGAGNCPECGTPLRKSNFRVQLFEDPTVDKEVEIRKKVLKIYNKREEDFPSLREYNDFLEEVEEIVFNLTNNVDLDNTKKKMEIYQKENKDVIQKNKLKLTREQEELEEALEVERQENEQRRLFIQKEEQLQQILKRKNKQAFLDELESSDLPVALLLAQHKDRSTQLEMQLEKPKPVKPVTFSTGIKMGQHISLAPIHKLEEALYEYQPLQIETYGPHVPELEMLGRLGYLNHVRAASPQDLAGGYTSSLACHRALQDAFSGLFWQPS
CDK9, sequence (P50750 whole entry): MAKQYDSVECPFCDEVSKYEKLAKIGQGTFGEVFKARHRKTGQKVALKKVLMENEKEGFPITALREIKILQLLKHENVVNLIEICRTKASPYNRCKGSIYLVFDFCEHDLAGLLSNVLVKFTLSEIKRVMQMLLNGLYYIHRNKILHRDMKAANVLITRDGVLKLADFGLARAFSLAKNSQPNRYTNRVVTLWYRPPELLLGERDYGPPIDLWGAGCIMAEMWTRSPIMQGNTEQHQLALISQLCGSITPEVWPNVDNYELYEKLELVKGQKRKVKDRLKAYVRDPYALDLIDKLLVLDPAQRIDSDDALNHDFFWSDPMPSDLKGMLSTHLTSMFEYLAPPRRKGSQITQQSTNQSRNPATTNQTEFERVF
CDK9, sequence (O60563 whole entry partner): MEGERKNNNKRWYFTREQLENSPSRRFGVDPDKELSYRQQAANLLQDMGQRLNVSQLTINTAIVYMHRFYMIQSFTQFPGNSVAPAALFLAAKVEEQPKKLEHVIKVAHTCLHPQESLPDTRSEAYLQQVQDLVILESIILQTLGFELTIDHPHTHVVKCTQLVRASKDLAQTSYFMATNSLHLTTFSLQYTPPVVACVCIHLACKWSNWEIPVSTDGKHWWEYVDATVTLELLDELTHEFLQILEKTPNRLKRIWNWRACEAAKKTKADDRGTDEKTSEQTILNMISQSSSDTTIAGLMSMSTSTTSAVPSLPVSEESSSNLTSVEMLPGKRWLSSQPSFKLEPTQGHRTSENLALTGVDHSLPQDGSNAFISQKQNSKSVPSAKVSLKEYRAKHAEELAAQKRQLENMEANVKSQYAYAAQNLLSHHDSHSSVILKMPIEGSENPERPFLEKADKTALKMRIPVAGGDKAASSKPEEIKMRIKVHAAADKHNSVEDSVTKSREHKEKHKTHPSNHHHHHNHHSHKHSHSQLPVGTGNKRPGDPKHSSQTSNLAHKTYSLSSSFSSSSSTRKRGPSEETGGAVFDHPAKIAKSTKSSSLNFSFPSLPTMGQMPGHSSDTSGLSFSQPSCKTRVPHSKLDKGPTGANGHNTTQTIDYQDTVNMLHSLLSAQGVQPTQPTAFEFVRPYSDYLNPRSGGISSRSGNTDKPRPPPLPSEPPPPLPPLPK

For `Cc1cnc(Nc2ccc3c(c2)OCCN(C)CCOCCO3)nc1O[C@H]1CC[C@@](C)(O)CC1` [Example 105, (1s,4s)-1-methyl-4-((5-methyl-2-((7-methyl-2,3,6,7,8,9-hexahydro-5H-benzo[b][1,4, 7]trioxa[10]azacyclododecan-12-yl)amino)pyrimidin-4-yl)oxy)cyclohexan-1-ol], the IC50 against LRRK2 [1] is < 100 nM.

`CNc1cc(O[C@H]2CC[C@@](C)(O)CC2)nc(Nc2ccc3c(c2)OCCN(C)CCO3)n1` [Example 108, (1s,4s)-1-methyl-4-((2-((4-methyl-3,4,5,6-tetrahydro-2H-benzo[b][1,4,7]dioxazolin-9-yl)amino)-6-(methylamino)pyrimidin-4-yl)oxy)cyclohexan-1-ol] yielded an IC50 at LRRK2 [1] of 500 to 1000 nM.

`CN1CCOCCOc2ccc(Nc3nc(O[C@H]4CC[C@@](C)(O)CC4)c4ccccc4n3)cc2OCC1` [Example 109, (1s,4s)-1-methyl-4-((2-((7-methyl-2,3,6,7,8,9-hexahydro-5H-benzo[b][1,4,7]trioxa[1 0]azacyclododecan-12-yl)amino)quinazolin-4-yl)oxy)cyclohexan-1-ol] showed an IC50 on LRRK2 [1] of 100 to 500 nM.

Consider `COc1ccccc1Nc1nc(Nc2ccc3c(c2)OCCN(C)CCO3)ncc1C(F)(F)F` [Example 95, N^4-(2-methoxyphenyl)-N^2-(4-methyl-3,4,5,6-tetrahydro-2H-benzo[b][1,4,7]dioxazolin-9-yl)-5-(trifluoromethyl)pyrimidin-2,4-diamine], for which the IC50 at LRRK2 [1] was < 100 nM.

As to `CN1CCOCCOc2ccc(Nc3nc(O[C@H]4CC[C@](C)(O)CC4)c4cc[nH]c4n3)cc2OCC1` [Example 87, (1r,4r)-1-methyl-4-((2-((7-methyl-2,3,6,7,8,9-hexahydro-5H-benzo[b][1,4,7]trioxa [10]azacyclododecan-12-yl)amino)-7H-pyrrolo[2,3-d]pyrimidin-4-yl)oxy)cyclohexan-1-ol], the IC50 against LRRK2 [1] is < 100 nM.

Take `CC(C)S(=O)(=O)c1ccccc1Nc1nc(Nc2ccc3c(c2)OCCOCCN(S(C)(=O)=O)CCO3)nc2[nH]ccc12` [Example 99, N^4-(2-(isopropylsulfonyl)phenyl)-N^2-(7-(methylsulfonyl)-2,3,6,7,8,9-hexahydro-5H-benzo[b][1,4,7]trioxa[10]azacyclododecan-13-yl)-7H-pyrrolo[2,3-d]pyrimidin-2,4-diamine]: the inhibition at 0.1 µM is 25 to 39% at CDK9; > 80% on TYK2; > 80% on CDK7; 40 to 79% on JAK1; > 80% on JAK3; > 80% at LRRK2 [2] (setting [3]). The inhibition at 0.1 µM at JAK2 was > 80%. The inhibition at 0.01 µM at TYK2 (at 10 nM) fell in the range of 25 to 39%; on CDK7, 40 to 79%; on JAK1 (at 10 nM), 25 to 39%; at JAK3 it was 40 to 79%; on JAK2, 40 to 79%.

Regarding `CN1CCOCCOc2cc(Nc3ncc(F)c(Nc4ccc5[nH]ccc5c4)n3)ccc2OCC1` [Example 30, 5-fluoro-N^4-(1H-indol-5-yl)-N^2-(7-methyl-2,3,6,7,8,9-hexahydro-5H-benzo[b][1,4,7]trioxa[10]azacyclododecan-13-yl)pyrimidin-2,4-diamine], the inhibition at 0.1 µM at CDK9 was 40 to 79%; at TYK2, 40 to 79%; on CDK7 it was 40 to 79%; at JAK1, 25 to 39%; at JAK3, > 80%; at LRRK2 [2] (setting [3]) it was 25 to 39%. In addition, the inhibition at 0.1 µM at JAK2 was > 80%. Besides, the inhibition at 0.01 µM was in the range of 25 to 39% at JAK3 and 40 to 79% on JAK2.

As to `CC(C)S(=O)(=O)c1ccccc1Nc1nc(Nc2ccc3c(c2)OCCOCCN(C)CCO3)nc2[nH]ccc12` [Example 10, N^4-(2-(isopropylsulfonyl)phenyl)-N^2-(7-methyl-2,3,6,7,8,9-hexahydro-5H-benzo[b][1,4, 7]trioxa[10]azacyclododecan-13-yl)-7H-pyrrolo[2,3-d]pyrimidin-2,4-diamine], the inhibition at 0.1 µM at CDK9 was 40 to 79%; at TYK2, > 80%; at CDK7, > 80%; on JAK1, 25 to 39%; at JAK3, > 80%; on LRRK2 [2] (setting [3]), > 80%. The inhibition at 0.1 µM at JAK2 was > 80%. Also, the inhibition at 0.01 µM at CDK7 was 40 to 79%; on JAK3, 40 to 79%; on LRRK2 [2] (at 10 nM, read-out: inhibition rate LRRK2), > 80%; at JAK2, > 80%. Further, the IC50 against LRRK2 [2] (kinase activity assay, Table 3) was < 50 nM.

With `CN1CCOCCOc2ccc(Nc3ncc(Cl)c(O[C@H]4CC[C@@](C)(O)CC4)n3)cc2OCC1` [Example 104, (1s,4s)-4-((5-chloro-2-((7-methyl-2,3,6,7,8,9-hexahydro-5H-benzo[b][1,4,7]trioxa[10]azacyclododecan-12-yl)amino)pyrimidin-4-yl)oxy)-1-methylcyclohexan-1-ol], the IC50 on LRRK2 [1] is < 100 nM.
